{
  "source": "patent US8557844B2",
  "about": "“Substrate reduction therapy” (The Chancellor, Masters and Scholars of the University of …, priority 2007, dated 2013)",
  "key": {"[1]": {"system": "NPC1 null (CT43) CHO cells", "test": "Total GSL level (HPLC) in NPC1 null CHO cells", "format": "cell-based", "settings": "50 μM NB-DGJ, 5 days, FIG. 3A", "source_text": "(§1) It has been shown that Niemann-Pick C1 cells (NPC1 null CHO cells) and normal cells treated with amphiphiles to induce an NPC1 phenotype, in addition to free cholesterol storage, have glycosphingolipid (GSL) storage (FIG. 3A) and abnormalities in endocytic transport (FIG. 3B) including defective early to late endosomal transport and late endosomal to Golgi transport (J Biol Chem 2004; 279(25):26167-75). NPC1 cells have a 2-fold increase in total GSLs (HPLC quantified) compared to controls (FIG. 3A). […] This correction in GSL levels is associated with a correction in endocytic transport defects (J Biol Chem 2004; 279(25):26167-75). Fluorescently labelled lactosylceramide (BODIPY-LacCer), a GSL normally transported through the endocytic system to the Golgi (FIG. 3Bi), is misdirected to the LE/Lys system in untreated NPC1 cells (FIG. 3Bii), indicative of GSL storage (J Biol Chem 2004; 279(25):26167-75; J Biol Chem 2003; 278(23):20961-70; Am J Hum Genet 2001; 68(6):1361-72)."}, "[2]": {"system": "total ganglioside and GM1 content in cerebrum-brainstem", "settings": "cited from earlier work"}, "SLOS (DHCR7−/−) MEFs": {"system": "SLOS (DHCR7−/−) MEFs", "format": "cell-based, murine", "settings": "50 μM NB-DGJ, 5 days, medium with LPDS"}, "[3]": {"system": "DHCR7−/− mouse embryonic fibroblasts", "test": "Nile red staining of ER neutral lipids in DHCR7−/− MEFs", "format": "cell-based", "parameters": "dose or concentration left out as unconfirmed", "settings": "5 days", "experimental": "DHCR7−/− mouse embryonic fibroblasts were grown under the conditions indicated in FIG. 9 (FCS=foetal calf serum, LPDS=lipoprotein deficient serum) for 5 days prior to staining of neutral lipids with Nile red. Under wild-type conditions (growth in FCS) Nile red stains the endoplasmic reticulum (ER) as expected. Inducing DHCR7−/− cells into a Smith-Lemli-Opitz phenotype by growth in LPDS leads to a depletion in ER neutral lipids and an elevation in punctate staining indicative of a block in transport to the ER. […] N=2."}, "[4]": {"settings": "cited from earlier work"}, "NPC1 cells": {"system": "NPC1 cells", "settings": "depletion of stored GSLs with NB-DGJ; cited from earlier work"}, "GSL biosynthesis": {"system": "GSL biosynthesis", "settings": "cited from earlier work"}, "[5]": {"system": "NPC1 null (CT43) CHO cells", "test": "BODIPY-LacCer pulse/chase endocytic transport in NPC1 null CHO cells", "format": "cell-based", "settings": "50 μM NB-DGJ, 5 days, 45 min pulse, 1 h chase, FIG. 3B", "source_text": "as §1"}, "[6]": {"settings": "cited from earlier work", "remark": "listed apart in the source"}},
  "note": "Entries after “also recorded” stand apart in the source; their conditions may differ.",
  "data": [
    {"smiles": "CCCCN1C[C@H](O)[C@@H](O)[C@@H](O)[C@H]1CO", "note": "[NB-DGJ, N-butyldeoxygalactonojirimycin]", "values": [
      {"measurement": "GSL storage", "setting": "[1]", "value": "reduction in GSL storage"},
      {"measurement": "total ganglioside and GM1 content", "setting": "[2]", "value": "marked reduction"},
      {"measurement": "endogenous ganglioside GM1 / GSL trafficking from LE/Lys to Golgi", "setting": "SLOS (DHCR7−/−) MEFs", "value": "corrected altered endogenous ganglioside GM1 trafficking"},
      {"measurement": "ER neutral lipid levels (Nile red)", "setting": "[3]", "value": "restoration of normal levels of neutral lipids at the ER"},
      {"measurement": "neurological side effects", "setting": "[4]; adult mice", "value": "not to cause neurological side effects"},
      {"measurement": "CNS penetration", "setting": "[4]; mouse, in vivo", "value": "penetrate the CNS"},
      {"measurement": "effects on behaviour or CNS development", "setting": "[4]; mouse, in vivo", "value": "without significant effects on behaviour or CNS development"},
      {"measurement": "HRP uptake", "setting": "NPC1 cells", "value": "correction in HRP uptake"},
      {"measurement": "inhibition of GSL biosynthesis relative to NB-DNJ", "setting": "GSL biosynthesis", "value": "comparably to NB-DNJ"},
      {"measurement": "BODIPY-LacCer endocytic transport", "setting": "[5]", "value": "correction in abnormal BODIPY-LacCer endocytic transport; also recorded: correction in BODIPY-LacCer transport to the Golgi"},
      {"measurement": "tolerability", "setting": "[6]; mouse models of GSL storage diseases", "value": "very well tolerated"},
      {"measurement": "side effect activities relative to NB-DNJ", "setting": "[6]; mouse, in vivo", "value": "lacks certain side effect activities associated with NB-DNJ"}
    ]}
  ]
}
